Reference: patent US12076307B2, “Compositions for prevention or treatment of acute radiation syndrome and other radiation exposure” (priority 2017, dated 2024)

Key:
[1] = In vitro metabolic stability / metabolite screening, statements over all species; assay type: in vitro ADME, rat, dog, monkey, human; conditions: 100 μM
Protocol: [^14C]EC-18 or the positive control (7-ethoxycoumarin; 7-EC) reacted with microsomes prepared from hepatocytes of rats, dogs, monkeys, and humans, with or without cofactors, for 60 and 120 min. Then, the residual EC-18 concentration over time was measured by LC-RID ([^14C]EC-18) or LC-MS/MS (7-EC) (FIG. 63 and FIG. 64).
The LC-RID chromatographic profiles of radioactive metabolites produced in the 2-hr incubation reaction mixtures of the same test systems A, B, and C used to assess the metabolic and non-metabolic elimination rates of EC-18 were compared to the LC-UV chromatographic profiles of the synthetic reference material. […] The relative radioactivity of EC-18 accounted for 42-67% of total radioactivity. The peaks designated as M2, M3, and M5 were also determined in all species, and their relative radioactivity accounted for 12-34% of total radioactivity. The peaks of M4 and M6 were determined in monkeys and humans. M1 was abundantly detected in all species, but it was assumed to be a peak of early elution. The LC-UV chromatograms of reaction mixtures in each test system (FIGS. 65A-65C) and the relative radioactivity of the screened metabolites are shown in Table 25.

CYP1A2 [2] = target: T1, CYP1A2 (Homo sapiens, UniProt P05177); assay: biochemical; assay type: in vitro ADME
T1 construct: incubated with human liver microsomes; from tissue; host or cells: human liver microsomes

[3] = In vitro plasma stability, human plasma; assay type: in vitro ADME; conditions: Humans; 1 μM; 37° C.; n=3
Protocol: (§1) To assess the stability of EC-18 in plasma, the test material, or the standard reference material (test concentration 1 μM) was mixed with rat and human plasma and allowed to react for 1 hr at 37° C. Then, the residual EC-18 concentration was measured by LC-MS/MS. As standard reference materials, albendazole (a drug with high plasma stability) and vinpocetine (a drug with low plasma stability) were tested in parallel. When allowed to react with rat and human plasma for 1 hr, the residual EC-18 concentration in both rat and human plasma was >99% of the initial dose.

[4] = In vitro plasma stability, rat plasma; assay type: in vitro ADME; conditions: Rats; 1 μM; 37° C.; n=3
Protocol: as §1

CYP1A2 [5] = assay type: in vitro ADME, human; conditions: Positive Control, 50 μM; n=3
CYP2C19 = CYP2C19 (Homo sapiens, UniProt P33261); assay: CYP enzyme inhibition in human liver microsomes, CYP2C19
Description: (§2) CYP1A2, CYP2C9, CYP2C19, CYP2D6, and CYP3A4 are the CYP subfamily, which plays a critical role in the metabolism of most drugs.

CYP2D6 = CYP2D6 (Homo sapiens, UniProt P10635); assay: CYP enzyme inhibition in human liver microsomes, CYP2D6
Description: as §2

CYP2C19, sequence (P33261 whole entry): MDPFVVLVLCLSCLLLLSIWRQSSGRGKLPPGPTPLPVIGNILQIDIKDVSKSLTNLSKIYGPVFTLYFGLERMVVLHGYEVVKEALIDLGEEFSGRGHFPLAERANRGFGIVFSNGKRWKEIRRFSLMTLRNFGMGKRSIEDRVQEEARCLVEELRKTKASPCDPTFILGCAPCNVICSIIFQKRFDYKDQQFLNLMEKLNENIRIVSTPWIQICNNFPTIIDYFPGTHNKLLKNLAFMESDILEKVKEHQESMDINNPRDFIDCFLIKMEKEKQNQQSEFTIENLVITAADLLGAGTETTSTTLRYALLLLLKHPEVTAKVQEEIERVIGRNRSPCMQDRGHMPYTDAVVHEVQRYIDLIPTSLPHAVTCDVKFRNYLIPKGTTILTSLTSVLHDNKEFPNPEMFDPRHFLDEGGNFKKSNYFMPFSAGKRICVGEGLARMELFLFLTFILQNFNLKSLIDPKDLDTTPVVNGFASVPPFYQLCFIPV
CYP2D6, sequence (P10635 whole entry): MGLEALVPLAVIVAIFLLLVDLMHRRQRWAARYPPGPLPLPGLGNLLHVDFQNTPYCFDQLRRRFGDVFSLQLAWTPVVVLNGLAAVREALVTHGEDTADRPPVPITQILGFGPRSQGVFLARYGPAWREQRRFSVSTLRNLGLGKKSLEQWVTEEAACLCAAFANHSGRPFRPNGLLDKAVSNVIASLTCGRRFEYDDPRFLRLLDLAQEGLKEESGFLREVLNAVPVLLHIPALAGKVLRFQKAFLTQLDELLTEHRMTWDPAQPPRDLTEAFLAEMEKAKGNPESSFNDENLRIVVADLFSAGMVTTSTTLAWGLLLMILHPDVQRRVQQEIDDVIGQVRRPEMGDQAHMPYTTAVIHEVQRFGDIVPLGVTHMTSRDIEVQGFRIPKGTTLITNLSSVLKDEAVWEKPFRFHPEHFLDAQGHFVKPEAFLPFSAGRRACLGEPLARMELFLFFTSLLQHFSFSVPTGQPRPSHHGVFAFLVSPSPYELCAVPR
T1 sequence (P05177 whole entry): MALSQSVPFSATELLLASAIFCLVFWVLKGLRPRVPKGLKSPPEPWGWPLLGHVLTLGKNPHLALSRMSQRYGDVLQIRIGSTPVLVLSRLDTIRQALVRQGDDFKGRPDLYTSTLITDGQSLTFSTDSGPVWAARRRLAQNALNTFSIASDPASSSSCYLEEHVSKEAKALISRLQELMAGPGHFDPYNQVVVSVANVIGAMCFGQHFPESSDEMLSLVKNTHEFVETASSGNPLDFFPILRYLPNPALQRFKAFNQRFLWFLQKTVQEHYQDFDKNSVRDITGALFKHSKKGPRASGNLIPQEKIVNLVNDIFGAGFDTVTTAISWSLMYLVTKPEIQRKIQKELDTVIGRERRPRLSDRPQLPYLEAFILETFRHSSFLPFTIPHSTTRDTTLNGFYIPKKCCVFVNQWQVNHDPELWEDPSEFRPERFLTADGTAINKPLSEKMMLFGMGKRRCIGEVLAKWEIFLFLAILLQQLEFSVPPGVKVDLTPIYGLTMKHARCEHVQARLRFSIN

## CCOc1ccc2ccc(=O)oc2c1 [7-EC, 7-ethoxycoumarin, reference compound]
[1]; 1 hr, test systems A and B, rats, dogs, monkeys, humans
  share of initial concentration eliminated: ≥ 99%
[1]; 2 hrs, test system C
  share of initial concentration retained: ≥ 92%
CYP1A2 [2]
  IC50: 1.7 µM

## CCCSc1ccc2nc(NC(=O)OC)[nH]c2c1 [Albendazol, albendazole, reference compound]
[3]
  Residual Concentration Relative to the Initial Dose After Reaction for 1 hr in Plasma: >99%
[4]
  Residual Concentration Relative to the Initial Dose After Reaction for 1 hr in Plasma: >99%

## CCOC(=O)C1=C[C@]2(CC)CCCN3CCc4c(n1c1ccccc41)[C@@H]32 [Vinpocetin, vinpocetine, reference compound]
[3]
  Residual Concentration Relative to the Initial Dose After Reaction for 1 hr in Plasma: 85.3 ± 3.8%
[4]
  Residual Concentration Relative to the Initial Dose After Reaction for 1 hr in Plasma: 52.4 ± 7.2%

## COc1ccc2[nH]c([S+]([O-])Cc3ncc(C)c(OC)c3C)nc2c1 (stereo not shown) [omeprazole, reference compound]
CYP1A2 [5]
  Enzyme Activity CYP1A2: 6.56 ± 2.86 pmol/106 Cells/Min
CYP2C19
  IC50: 6 µM

## CC(CN1c2ccccc2Sc2ccccc21)N(C)C (stereo not shown) [promethazine, reference compound]
CYP2D6
  IC50: 67.9 µM
